Results taken from US5334595A, “Pyrazoloquinolones as anticancer agents” (priority 1992, dated 1994).

System: lung carcinoma No. 12 (LC 12)
Experiment: In vivo antitumor assay, LC12(sc)
Set-up: species or system mice
Conditions: drug iv, qd 3,5, exp 1161
Excerpt: Mice: Inbred: C3H/He and NCR-nu; and Hybrids: B6D2F1 (C57BL/6 females×DBA/2 males, CD2F1 (Balb/c females×DBS/2 males) and B6C3fl (C57BL/6×C3H) were bred at Wayne State University from strains obtained from the Frederick Cancer Research Facility, Frederick, Maryland or purchased from commercial suppliers.
Tumors: Murine Tumor: P388 and an adriamycin-resistant (ADR) subline P388/ADR leukemia and the following transplantable solid tumors of mice were used for in vivo testing: B16 melanoma (B16), pancreatic ductal adenocarcinoma No. 03 (Pane 03), colon adenocarcinoma No. 38 (colo 38), lung carcinoma No. 12 (LC 12), mammary ductal adenocarcinoma No. 16/C (Mam16C) and an adriamycin-resistant subline Mam16C/ADR. Human tumor: A single human tumor, mammary carcinoma MX-1 was used for in vivo testing. All tumors are in the Developmental Therapeutics Program frozen tumor respository, maintained by the Biological Testing Branch, Frederick Maryland. Each has a detailed description, code identification number, and list of references at the National Tumor Repository. Murine tumors were maintained in the mouse strain of origin and were transplanted in the appropriate F1 hydrid (or the strain of origin) for therapy trials. […]
Quantitative end points used to assess antitumor activity included % Increased Life Span (% ILS), Tumor Cell Kill (Log10 kill), and Tumor Growth Inhibition (T/C). […]
Tumors were measured with a caliper once or twice weekly (as needed) until either tumors exceeded 1600 mg or cure was assured. […] When the control group tumors reached approximately 750-1500 mg in size (median of group), the median tumor weight of each group was determined (including zeros). […] The % T/C was calculated from the following formula for solid murine tumor models: [formula] where T and C are median tumor weights of the treatment and control groups, respectively. […] By convention the T/C value for the mammary carcinoma MX-1 models is calculated by the parameter of change in tumor weight .

Cc1cc(-c2c(F)cc3c4nn(CCN(C)C)c(=O)c-4cn(C4CC4)c3c2F)cc(C)n1.O=C(O)/C=C/C(=O)O [Example 1, 5-Cyclopropyl-6,8-difluoro-2,5-dihydro-2-[2-(dimethylamino)-ethyl]-7-(2,6-dimethyl-4-pyridinyl)-3H-pyrazolo[4,3-c]quinolin-3-one (E)-2-butendioate (1:1)]
Log Kill: 0.76 | T/C %: 25%
